Experiments:
[1] = powder; cited from earlier work
[2] = Pharmacokinetics in 3 CYP2D6 poor metabolizers given bupropion hydrochloride 105 mg and dextromethorphan hydrobromide 45 mg twice a day (Example 1); conditions: 3 poor metabolizers; 105 mg bupropion hydrochloride and 45 mg dextromethorphan hydrobromide twice a day
[3] = 7 days of twice-daily 30 mg dextromethorphan and 30 mg quinidine; cited from earlier work
[4] = Concomitant use of the subject combination with strong CYP2D6 inhibitors; format: in vivo, human; conditions: subject combination with one or more strong CYP2D6 inhibitors
Excerpt: In some embodiments, the subject composition may be co-administered with one or more strong Inhibitors of CYP2D6. […] It is, thus, recommended to monitor patients for adverse effects or adverse reactions potentially attributable to dextromethorphan, such as somnolence and dizziness.

[5] = Steady state pharmacokinetic data in 12 poor metabolizers in efficacy clinical trials (Example 2); conditions: 105 mg bupropion hydrochloride and 45 mg dextromethorphan hydrobromide twice a day
[6] = CYP2D6 inhibited by quinidine; vs patients who were not CYP2D6 poor metabolizers; cited from earlier work
[7] = Effect of CYP2D6 poor metabolizer status on pharmacokinetics of the 45 mg dextromethorphan hydrobromide / 105 mg bupropion hydrochloride tablet (Example 3, FIG. 1); conditions: CYP2D6 poor metabolizers vs extensive or ultra-extensive metabolizers; after 8 days of twice daily dosing of the tablet
[8] = Clinical trials of the bupropion and dextromethorphan combination, poor metabolizers vs other patients

| SMILES | solubility in water [1] | increase in dextromethorphan AUC0-12 compared to extensive metabolizers [2] [fold] | increase in dextromethorphan Cmax compared to extensive metabolizers [2] [fold] | increase in AUC0-12 of poor metabolizers compared to extensive metabolizers [3] [fold] | increase in Cmax of poor metabolizers compared to extensive metabolizers [3] | plasma concentrations of dextromethorphan [4] | plasma concentrations of dextromethorphan vs exposures for non-poor metabolizer [5] | AUC0-12 of dextromethorphan higher for CYP2D6 poor metabolizers [6] | Cmax of dextromethorphan higher for poor metabolizers [6] | increase in dextromethorphan AUC0-12 (GMR) [7] [fold] | increase in dextromethorphan Cmax (GMR) [7] [fold] | Cmax and AUC of dextromethorphan in poor metabolizers vs patients who are not poor metabolizers [8] |
| --- | --- | --- | --- | --- | --- | --- | --- | --- | --- | --- | --- | --- |
| Br.COc1ccc2c(c1)[C@]13CCCC[C@@H]1[C@H](C2)N(C)CC3 [Dextromethorphan hydrobromide, morphinan, 3-methoxy-17-methyl-, (9α, 13α, 14α), hydrobromide monohydrate] | sparingly soluble |  |  |  |  |  |  |  |  |  |  |  |
| CC(NC(C)(C)C)C(=O)c1cccc(Cl)c1.Cl (racemic) [Bupropion hydrochloride, (±)-1-(3-chlorophenyl)-2-[(1,1-dimethylethyl)amino]-1-propanone hydrochloride] | highly soluble |  |  |  |  |  |  |  |  |  |  |  |
| COc1ccc2c(c1)[C@]13CCCC[C@@H]1[C@H](C2)N(C)CC3 [dextromethorphan] |  | ~3.4 | ~3 | ~1.46 | about 1.43 fold | increases | generally higher | about 46% | about 40% | 3.40 | 3.00 | significantly higher |
